*1 amine or outer side, *2 acyl side, *3 side chain or, on linkers, in order; H or OH if unused. Where a SMILES comes first, the peptide text is derived from it. Bridges are numbered along the chain shown (N, C = ends). [ ]: non-standard residue; d: D form. X1 = CC(C)CCCCCCCCC[C@H](CC(=O)[*:1])O[*:2]
Legend:
[1] = Determination of biosurfactant MAD (Minimum Active Dose) by oil expansion experiment; format: physicochemical
Description: Determination method of biosurfactant MAD (Minimum Active Dose) values: prepare different concentrations of water solution from pure biosurfactants to be determined, and measure the oil expansion activity through oil expansion experiment. With the decrease of concentration, the oil expansion ability of water solution becomes weaker and weaker, and completely disappears when the concentration decreases to a certain level. The amount of surfactant at the time of oil expansion ability disappearing is the MAD value.

[2] = Determination of biosurfactant CMC values; format: physicochemical; conditions: for CMC: water solution
Description: Determination method of biosurfactant CMC values: prepare different concentrations of water solution from pure biosurfactants to be determined, and measure its surface tension with surface tension meter. With the increase of surface activity (concentration), the surface tension of water solution gradually […]. The surface tension stops decreasing when the concentration increases to a certain level. The amount of surfactant corresponding to this critical surface tension is CMC value.

Bacillus plakortidis = assay: Antibacterial activity, filter paper method; format: cell-based; conditions: 28° C.
Description: (§1) Antibacterial activity test method: use filter paper method to detect antibacterial activity of biosurfactant produced by fermentation of strain Alcanivorax dieselolei T6-6. The indicator bacteria are Gram-negative bacteria, Gram-positive bacteria, endophytic pathogenic fungus in tea tree and yeasts. Specific steps: coat the well-shaken indicator bacteria on the culture plate, stick filter paper on each scribe region, and drip surfactant on filter paper. The control group is the methanol solvent of same amount. After bacteria are inverted cultured in constant temperature incubation at 28° C. for a certain period (different indicator bacteria have different growth cycles; bacteria grow quickly, but endophytic fungus in tea tree should grow 3-5 days), and observe the results to detect inhibition zone. If there is an inhibition zone, its size should be measured.

[3] = tested on: Ornithinibacillus bavariensis; assay: Antibacterial activity, filter paper method; format: cell-based; conditions: 28° C.
Description: as §1

Bacillus thuringiensis = assay: Antibacterial activity, filter paper method; format: cell-based; conditions: 28° C.
Description: as §1

Phomaexigua var. exigua = assay: Antibacterial activity, filter paper method; format: cell-based; conditions: 28° C.
Description: as §1

Bacillus safensis = assay: Antibacterial activity, filter paper method; format: cell-based; conditions: 28° C.
Description: as §1

[4] = tested on: Lysinibacillus sphaericus; assay: Antibacterial activity, filter paper method; format: cell-based; conditions: 28° C.
Description: as §1

Pestalotiopsistheae = assay: Antibacterial activity, filter paper method; format: cell-based; conditions: 28° C.
Description: as §1

Rhodotorula mucilaginosa = assay: Antibacterial activity, filter paper method; format: cell-based; conditions: 28° C.
Description: as §1

Bacillus rhizosphaerae = assay: Antibacterial activity, filter paper method; format: cell-based; conditions: 28° C.
Description: as §1

E. coli. DH5 alpha = assay: Antibacterial activity, filter paper method; format: cell-based; conditions: bacteriostasis experiment
Description: as §1
(§2) DH5 alpha, aeromonas hydrophila and Campbell vibrio.

aeromonas hydrophila = assay: Antibacterial activity, filter paper method; format: cell-based; conditions: bacteriostasis experiment
Description: as §1, §2

Campbell vibrio = assay: Antibacterial activity, filter paper method; format: cell-based; conditions: bacteriostasis experiment
Description: as §1, §2

[5] = Oil expansion activity at different temperatures and pH values; format: physicochemical
Experimental: Determination method of biosurfactant oil expansion activity: Take a culture dish, add water, and add 0.1 ml hexadecane on the water surface to form oil film. Add the fermentation liquid from the shake flask to the center of oil film to make the central film squeezed to form a circle, the diameter of which positively correlates to the concentration and activity of the biosurfactant. Strains with cycle diameter more than 3 cm are retained for further study. Set pH value in the range of 2 to 10 to determine effect of pH on lysine ester produced by the strain Alcanivorax dieselolei T6-6. Oil expansion diameter varies from 3.6 to 3.9 for lysine ester produced by the strain Alcanivorax dieselolei T6-6 with small fluctuation. It has a good acid and base resistance, and the activity is the highest at pH=8. Considering the structure, it can be inferred that this material is alkaline. And also, when adding a few drops of ammonia expansion on the running TLC plate, the substance will expand more fully, which also proves that it is alkaline.
Treat the pure lysine ester produced by strain Alcanivorax dieselolei T6-6 at temperatures of 20° C., 40° C., 60° C., 80° C. and 100° C. for one hour, and then determine its activity. […] Good thermal stability makes it possible for the substance to be used in high temperature fields.

[6] = Biosurfactant emulsifying property (emulsion stable value); format: physicochemical
Experimental: In order to understand the emulsifying activity of lysine ester produced by strain Alcanivorax dieselolei T6-6, we determined the emulsifying stability value of lysine ester produced by strain Alcanivorax dieselolei T6-6 and the chemical surfactants Tween 20 and Triton X-100 against olive oil, n-hexane, dimethylbenzene, hexadecane and petroleum ether. Determination method of biosurfactant emulsifying property: add 5 ml commercially available diesel No. 0 and 5 ml surfactant solution (1%) into a test tube, treat it with ultrasonic generator at 800 W for 40 s, and measure the emulsion and oil phase at different times (0 to 24 hours). Emulsion stable value (Es %)=emulsified layer height (cm)/oil phase height (cm)×100. […] Lysine ester produced by strains Alcanivorax dieselolei T6-6 has a good emulsifying activity (83±1%) on olive oil, and can maintain […] at room temperature. Its emulsifying activity on four other organics is also more than 75%. Good emulsifying activity makes it greatly valuable in environmental pollution control.

normal hepatocytes 7702 = assay: Cytotoxic activity test, Cell Counting Kit-8; format: cell-based; conditions: 100 ug/ml, 48 hours
Description: (§3) Cytotoxic activity test method: measure cytotoxic activity using a Cell Counting Kit-8 (CCK-8 kit for short and of Dojindo Laboratories, Japan), namely, […]. The human CCK octapeptide ELISA is a quick high-sensitivity detection kit based on WST-8 and widely applied to cell proliferation and cytotoxic activity. WST-8 is a compound similar to the MTT. With the presence of electronic coupling reagent, WST-8 can be reduced by some dehydrogenases in mitochondria and produce orange formazan. The more and faster the cell proliferation is, the deeper the color; the greater the cytotoxicity is, the lighter the color. For the same cells, the color depth has a linear relationship with the number of cells. Solvent DMSO is used in control group, and pure lysine ester produced by strain Alcanivorax dieselolei T6-6 dissolved in DMSO are used in experimental group. Cells are hepatoma cells 7402 and normal hepatocytes 7702 (available from Sino-US Joint Venture Biohermes Biomedical Technology Ltd). Medicinal concentration is 100 ug/ml, and operation is taken according to kit instruction, with each step repeated three times. After medication, […] is detected in cellular fluid after culturing for 48 hours. Cell toxicity results are shown in Table 8: The medicine-to-cell suppression rate=[negative group (DMSO)−experimental group (dosed)]/negative group (DMSO). […] Accordingly, the active substances of lysine ester generated by the strain Alcanivorax dieselolei T6-6 have better cytotoxic activity.

hepatoma cells 7402 = assay: Cytotoxic activity test, Cell Counting Kit-8; format: cell-based; conditions: 100 ug/ml, 48 hours
Description: as §3

[7] = Liquid surface tension (automatic interfacial tensiometer); format: physicochemical
Experimental: Test method of liquid surface tension: Inoculate the Alcanivorax dieselolei T6-6 single bacterium into MSM medium on clean workbench (with 2% n-hexadecane as the sole carbon source), and culture it in constant temperature air bath shaker incubator (28° C., 200 rpm/min) until thalli obviously grow (about 3 to 5 days), during which take out 10 ml fermentation liquid every 24 hours, and measure its surface tension values using automatic interfacial tensiometer (Manufacturer: Chengde Precision Testing Machine Co., Ltd; Model: JZ-200-a automatic interface tensiometer). […] (For refrigeration of supernatant and hydrophobic layer stratified after centrifugation, the surface tension should be measured when it gets to the room temperature. Thus, the result is comparability and credibility). When measuring liquid surface tension, pour 10 ml fermentation liquid of A. dieselolei T6-6 at temperature of 25° C. into a weighing cup, place the weighing cup in the center of the tray, press “▴” to make the platinum ring deep into 5 mm to 7 mm in the liquid, press “●” to stop; if the peak needs to be kept, firstly press “peak” button, and then press “▾”, the display value will increase gradually, and finally stay at the maximum; this maximum value is the actually measured value of surface tension of liquid, and then press “●” to stop, after the maximum value is recorded, press “reset” button. […]

Question: With Triton X-100 as the compound, how does the MAD [1] read?
Answer: Its MAD is 0.3 ± 0.08 µg.

Question: With CCCCCCCCCCCCOS(=O)(=O)[O-].[Na+] [SDS] as the compound, how does the MAD [1] read?
Answer: The MAD was 6.0 ± 0.12 µg.

Question: And the CMC [2]?
Answer: The CMC was 23 mg/L.

Question: With CC(C)CCCCCCCCC[C@@H]1CC(=O)N[C@@H](CCC(=O)O)C(=O)N[C@@H](CC(C)C)C(=O)N[C@H](CC(C)C)C(=O)N[C@@H](C(C)C)C(=O)N[C@@H](CC(=O)O)C(=O)N[C@H](CC(C)C)C(=O)N[C@@H](CC(C)C)C(=O)O1 [Surfactin] (EL[dL]VD[dL]L; linker N-C via X1) as the compound, how does the CMC [2] read?
Answer: Its CMC is 45 mg/L.

Question: Which MAD [1] does the source give for CCCCCCCCCCCCCC1CC(=O)N1CCCCC(N)C(=O)O (centres unmarked) [2-amino-6-(2-oxo-4-tridecyl-azetidine-1-yl) hexanoic acid] here?
Answer: Its MAD is 0.105 ± 0.05 µg.

Question: And the Inhibition zone (Bacillus plakortidis)?
Answer: Its Inhibition zone is 13.7 mm.

Question: And the Inhibition zone [3]?
Answer: The Inhibition zone was 14.2 mm.

Question: What about the Inhibition zone (Bacillus thuringiensis) of the same compound?
Answer: Its Inhibition zone is 7.2 mm.

Question: What about the Inhibition zone (Phomaexigua var. exigua) of the same compound?
Answer: The Inhibition zone was 16.3 mm.

Question: And the Inhibition zone (Bacillus safensis)?
Answer: Its Inhibition zone is 10.9 mm.

Question: What about the Inhibition zone [4] of the same compound?
Answer: The Inhibition zone was 11.7 mm.

Question: What about the Inhibition zone (Pestalotiopsistheae) of the same compound?
Answer: The Inhibition zone was 10.19 mm.

Question: What about the Inhibition zone (Rhodotorula mucilaginosa) of the same compound?
Answer: Its Inhibition zone is 12.1 mm.

Question: And the Inhibition zone (Bacillus rhizosphaerae)?
Answer: The Inhibition zone was 10.4 mm.

Question: What about the suppression effect (E. coli. DH5 alpha) of the same compound?
Answer: The suppression effect was “no suppression effect”.

Question: What about the suppression effect (aeromonas hydrophila) of the same compound?
Answer: The suppression effect was “no suppression effect”.

Question: What about the suppression effect (Campbell vibrio) of the same compound?
Answer: Its suppression effect is “no suppression effect”.

Question: And the CMC value ([2]; summary statement)?
Answer: Its CMC value is 32 mg 1-1.

Question: What about the CMC [2] of the same compound?
Answer: The CMC was 32 mg/L.

Question: What about the “pH of highest activity” value ([5]; oil expansion experiment, pH 2 to 10) of the same compound?
Answer: The value was 8.

Question: And the oil expansion diameter ([5]; treated at 121° C. for 15 minutes)?
Answer: The oil expansion diameter was “about 3.5 cm”.

Question: And the “emulsifying activity compared with Tween 20 and Triton X-100” value ([6]; FIG. 12)?
Answer: The value was “higher emulsifying activity”.

Question: And the “emulsifying activity (emulsion stable value)” value ([6]; four other organics (n-hexane, dimethylbenzene, hexadecane, petroleum ether))?
Answer: Its value is “more than 75%”.

Question: And the “emulsifying activity (emulsion stable value)” value ([6]; olive oil)?
Answer: The value was 83±1%.

Question: What about the “time emulsion is maintained” value ([6]; olive oil, room temperature) of the same compound?
Answer: The value was 48 h.

Question: And the medicine-to-cell suppression rate (normal hepatocytes 7702)?
Answer: Its medicine-to-cell suppression rate is 67.32%.

Question: What about the “cell culture fluid OD600” value (normal hepatocytes 7702; DMSO control 0.863) of the same compound?
Answer: Its value is 0.282.

Question: What about the medicine-to-cell suppression rate (hepatoma cells 7402) of the same compound?
Answer: The medicine-to-cell suppression rate was 92.74%.

Question: And the “cell culture fluid OD600” value (hepatoma cells 7402; DMSO control 1.667)?
Answer: Its value is 0.121.

Question: What about the “surface tension of water after adding component” value ([7]; 300 ul unconcentrated surfactant added to 20 ml DDW, water alone 78.6) of the same compound?
Answer: The value was 32.3.

Question: And the “surface tension reduced to” value ([7]; summary statement)?
Answer: Its value is 26-28 mN m-1.

Question: Which CMC [2] does the source give for Rhamnolipid here?
Answer: Its CMC is 50 mg/L.

Reference: patent US9920387B2, “Strain of marine oil-degrading bacteria, compounds obtained by fermentation and their applications” (THIRD INSTITUTE OF OCEANOGRAPHY,STATE OCEANIC ADMINISTRATION, priority 2014, dated 2018)
